# From PubChem BioAssay (NCI)
#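 Step 1: Grow cells in 96-well plates. Step 2: Expose to compound for 48 hours at 5 concentrations. Step 3: Interpolate endpoints linearly; if unreached, use highest concentration. The concentration for full growth arrest is given as TGI.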
# Columns and labels:
# Assay in all cases: DTP human tumour cell line panel, 48 h
# SF-268 CNS = tested on: SF-268 CNS
# SW-620 colon = tested on: SW-620 colon
# OVCAR-4 ovarian = tested on: OVCAR-4 ovarian
# A549 NSCLC = tested on: A549 NSCLC
# UO-31 renal = tested on: UO-31 renal
# HOP-62 NSCLC = tested on: HOP-62 NSCLC
# KM20L2 colon = tested on: KM20L2 colon
# TK-10 renal = tested on: TK-10 renal
# XF 498 CNS = tested on: XF 498 CNS
# HCC-2998 colon = tested on: HCC-2998 colon
# MOLT-4 leukemia = tested on: MOLT-4 leukemia
# SNB-78 CNS = tested on: SNB-78 CNS
# COLO 205 colon = tested on: COLO 205 colon
# HCT-15 colon = tested on: HCT-15 colon
# LOX IMVI melanoma = tested on: LOX IMVI melanoma
# M14 melanoma = tested on: M14 melanoma
# M19-MEL melanoma = tested on: M19-MEL melanoma
# SF-295 CNS = tested on: SF-295 CNS
# HCT-116 colon = tested on: HCT-116 colon
# OVCAR-5 ovarian = tested on: OVCAR-5 ovarian
# KM12 colon = tested on: KM12 colon
# HOP-92 NSCLC = tested on: HOP-92 NSCLC
# ACHN renal = tested on: ACHN renal
# CAKI-1 renal = tested on: CAKI-1 renal
# NCI-H23 lung = tested on: NCI-H23 lung
# IGROV1 ovarian = tested on: IGROV1 ovarian
# HT29 colon = tested on: HT29 colon
# SNB-19 CNS = tested on: SNB-19 CNS
# SK-MEL-2 melanoma = tested on: SK-MEL-2 melanoma
# HL-60(TB) leukemia = tested on: HL-60(TB) leukemia
# DMS 114 small cell lung = tested on: DMS 114 small cell lung
# MALME-3M melanoma = tested on: MALME-3M melanoma
# CCRF-CEM leukemia = tested on: CCRF-CEM leukemia
# 786-0 renal = tested on: 786-0 renal
# NCI-H460 lung = tested on: NCI-H460 lung
# EKVX NSCLC = tested on: EKVX NSCLC
# K-562 leukemia = tested on: K-562 leukemia
# UACC-62 melanoma = tested on: UACC-62 melanoma
# RXF 393 renal = tested on: RXF 393 renal
# RPMI-8226 leukemia = tested on: RPMI-8226 leukemia
# SK-OV-3 ovarian = tested on: SK-OV-3 ovarian
# OVCAR-8 ovarian = tested on: OVCAR-8 ovarian
# SNB-75 CNS = tested on: SNB-75 CNS
# SK-MEL-5 melanoma = tested on: SK-MEL-5 melanoma
# A498 renal = tested on: A498 renal
# UACC-257 melanoma = tested on: UACC-257 melanoma
# HOP-18 NSCLC = tested on: HOP-18 NSCLC
# SF-539 CNS = tested on: SF-539 CNS
# DLD-1 colon = tested on: DLD-1 colon
# U251 CNS = tested on: U251 CNS
# OVCAR-3 ovarian = tested on: OVCAR-3 ovarian
# LXFL 529 NSCLC = tested on: LXFL 529 NSCLC
# SN12C renal = tested on: SN12C renal
# DMS 273 small cell lung = tested on: DMS 273 small cell lung
# NCI-H522 lung = tested on: NCI-H522 lung
# NCI-H226 lung = tested on: NCI-H226 lung
# SK-MEL-28 melanoma = tested on: SK-MEL-28 melanoma
compound,measurement,setting,value
Nc1ncnc2c1ncn2C1OC(CSCc2ccc(Cl)cc2)C(O)C1O (centres undefined),TGI,SF-268 CNS,> 100 µM
same,TGI,SW-620 colon,> 100 µM
same,TGI,OVCAR-4 ovarian,> 100 µM
same,TGI,A549 NSCLC,> 100 µM
same,TGI,UO-31 renal,56 µM
same,TGI,HOP-62 NSCLC,64.3 µM
same,TGI,KM20L2 colon,> 100 µM
same,TGI,TK-10 renal,> 100 µM
same,TGI,XF 498 CNS,85.9 µM
same,TGI,HCC-2998 colon,> 100 µM
same,TGI,MOLT-4 leukemia,46 µM
same,TGI,SNB-78 CNS,> 100 µM
same,TGI,COLO 205 colon,> 100 µM
same,TGI,HCT-15 colon,> 100 µM
same,TGI,LOX IMVI melanoma,> 100 µM
same,TGI,M14 melanoma,36.7 µM
same,TGI,M19-MEL melanoma,> 100 µM
same,TGI,SF-295 CNS,> 100 µM
same,TGI,HCT-116 colon,61.4 µM
same,TGI,OVCAR-5 ovarian,> 100 µM
same,TGI,KM12 colon,77.4 µM
same,TGI,HOP-92 NSCLC,32.3 µM
same,TGI,ACHN renal,> 100 µM
same,TGI,CAKI-1 renal,54 µM
same,TGI,NCI-H23 lung,71.5 µM
same,TGI,IGROV1 ovarian,> 100 µM
same,TGI,HT29 colon,> 100 µM
same,TGI,SNB-19 CNS,> 100 µM
same,TGI,SK-MEL-2 melanoma,68.7 µM
same,TGI,HL-60(TB) leukemia,62.2 µM
same,TGI,DMS 114 small cell lung,59.7 µM
same,TGI,MALME-3M melanoma,> 100 µM
same,TGI,CCRF-CEM leukemia,> 100 µM
same,TGI,786-0 renal,> 100 µM
same,TGI,NCI-H460 lung,> 100 µM
same,TGI,EKVX NSCLC,> 100 µM
same,TGI,K-562 leukemia,> 100 µM
same,TGI,UACC-62 melanoma,> 100 µM
same,TGI,RXF 393 renal,73.8 µM
same,TGI,RPMI-8226 leukemia,67.3 µM
same,TGI,SK-OV-3 ovarian,> 100 µM
same,TGI,OVCAR-8 ovarian,> 100 µM
same,TGI,SNB-75 CNS,58.5 µM
same,TGI,SK-MEL-5 melanoma,90.9 µM
same,TGI,A498 renal,96 µM
same,TGI,UACC-257 melanoma,> 100 µM
same,TGI,HOP-18 NSCLC,> 100 µM
same,TGI,SF-539 CNS,> 100 µM
same,TGI,DLD-1 colon,> 100 µM
same,TGI,U251 CNS,> 100 µM
same,TGI,OVCAR-3 ovarian,> 100 µM
same,TGI,LXFL 529 NSCLC,48.3 µM
same,TGI,SN12C renal,> 100 µM
same,TGI,DMS 273 small cell lung,84.7 µM
COc1cc2cc3c4c(cc(OC)c(OC)c4c2cc1OC)CCN3,TGI,SF-268 CNS,> 100 µM
same,TGI,SW-620 colon,51.2 µM
same,TGI,OVCAR-4 ovarian,> 100 µM
same,TGI,A549 NSCLC,> 100 µM
same,TGI,UO-31 renal,> 100 µM
same,TGI,HOP-62 NSCLC,> 100 µM
same,TGI,KM20L2 colon,88.5 µM
same,TGI,TK-10 renal,> 100 µM
same,TGI,NCI-H522 lung,> 100 µM
same,TGI,XF 498 CNS,> 100 µM
same,TGI,HCC-2998 colon,> 100 µM
same,TGI,MOLT-4 leukemia,> 100 µM
same,TGI,SNB-78 CNS,> 100 µM
same,TGI,COLO 205 colon,63.2 µM
same,TGI,HCT-15 colon,> 100 µM
same,TGI,LOX IMVI melanoma,> 100 µM
same,TGI,M14 melanoma,> 100 µM
same,TGI,M19-MEL melanoma,25.6 µM
same,TGI,SF-295 CNS,> 100 µM
same,TGI,HCT-116 colon,> 100 µM
same,TGI,KM12 colon,> 100 µM
same,TGI,HOP-92 NSCLC,> 100 µM
same,TGI,NCI-H226 lung,> 100 µM
same,TGI,ACHN renal,> 100 µM
same,TGI,CAKI-1 renal,> 100 µM
same,TGI,NCI-H23 lung,> 100 µM
same,TGI,IGROV1 ovarian,> 100 µM
same,TGI,HT29 colon,96.2 µM
same,TGI,SNB-19 CNS,> 100 µM
same,TGI,SK-MEL-2 melanoma,59.7 µM
same,TGI,HL-60(TB) leukemia,42.3 µM
same,TGI,DMS 114 small cell lung,> 100 µM
same,TGI,MALME-3M melanoma,> 100 µM
same,TGI,CCRF-CEM leukemia,77.2 µM
same,TGI,786-0 renal,> 100 µM
same,TGI,NCI-H460 lung,82.6 µM
same,TGI,EKVX NSCLC,> 100 µM
same,TGI,K-562 leukemia,81.6 µM
same,TGI,UACC-62 melanoma,19.5 µM
same,TGI,RXF 393 renal,85.8 µM
same,TGI,RPMI-8226 leukemia,68 µM
same,TGI,SK-OV-3 ovarian,> 100 µM
same,TGI,OVCAR-8 ovarian,> 100 µM
same,TGI,SNB-75 CNS,> 100 µM
same,TGI,SK-MEL-5 melanoma,> 100 µM
same,TGI,UACC-257 melanoma,> 100 µM
same,TGI,SK-MEL-28 melanoma,> 100 µM
same,TGI,HOP-18 NSCLC,> 100 µM
same,TGI,SF-539 CNS,51.1 µM
same,TGI,DLD-1 colon,73.8 µM
same,TGI,U251 CNS,> 100 µM
same,TGI,OVCAR-3 ovarian,> 100 µM
same,TGI,LXFL 529 NSCLC,> 100 µM
same,TGI,SN12C renal,> 100 µM
same,TGI,DMS 273 small cell lung,> 100 µM
